Measured values from ChEMBL document CHEMBL5528002, “Identification of selective 5-LOX and FLAP inhibitors as novel anti-inflammatory agents by ligand-based virtual screening” (Eur J Med Chem, 2024).
Activity calls are given as the source filed them. The calls are words filed in the database; no cut-off is given here.

What was measured:
Macrophage cell line [1] = assay: Effect on lipid mediator formation in human M1-like phenotype MDM cells by measuring PGD2 formation at 10 uM pre-incubated for 15 mins followed by SACM stimulation and measured after 90 mins by UPLC-MS/MS analysis (reference value: 46 +/- 15 pg/ml); format: functional; conditions: time 105 min, 1.75 h
Macrophage cell line [2] = assay: Effect on lipid mediator formation in human M1-like phenotype MDM cells by measuring 14-HDHA formation at 10 uM pre-incubated for 15 mins followed by SACM stimulation and measured after 90 mins by UPLC-MS/MS analysis (reference value: 100 +/- 21 pg/ml); format: functional; conditions: time 105 min, 1.75 h
Macrophage cell line [3] = assay: Effect on lipid mediator formation in human M1-like phenotype MDM cells by measuring EPA formation at 10 uM pre-incubated for 15 mins followed by SACM stimulation and measured after 90 mins by UPLC-MS/MS analysis (reference value: 20261 +/- 1404 pg/ml); format: functional; conditions: time 105 min, 1.75 h
Macrophage cell line [4] = assay: Effect on lipid mediator formation in human M1-like phenotype MDM cells by measuring 5-HEPE formation at 10 uM pre-incubated for 15 mins followed by SACM stimulation and measured after 90 mins by UPLC-MS/MS analysis relative to control; format: functional; conditions: time 105 min, 1.75 h
Macrophage cell line [5] = assay: Effect on lipid mediator formation in human M1-like phenotype MDM cells by measuring t-LTB4 formation at 10 uM pre-incubated for 15 mins followed by SACM stimulation and measured after 90 mins by UPLC-MS/MS analysis relative to control; format: functional; conditions: time 105 min, 1.75 h
Macrophage cell line [6] = assay: Effect on lipid mediator formation in human M1-like phenotype MDM cells by measuring TXB2 formation at 10 uM pre-incubated for 15 mins followed by SACM stimulation and measured after 90 mins by UPLC-MS/MS analysis relative to control; format: functional; conditions: time 105 min, 1.75 h
Macrophage cell line [7] = assay: Effect on lipid mediator formation in human M1-like phenotype MDM cells by measuring 14-HDHA formation at 10 uM pre-incubated for 15 mins followed by SACM stimulation and measured after 90 mins by UPLC-MS/MS analysis relative to control; format: functional; conditions: time 105 min, 1.75 h
Macrophage cell line [8] = assay: Effect on lipid mediator formation in human M1-like phenotype MDM cells by measuring 7-HDHA formation at 10 uM pre-incubated for 15 mins followed by SACM stimulation and measured after 90 mins by UPLC-MS/MS analysis relative to control; format: functional; conditions: time 105 min, 1.75 h
Macrophage cell line [9] = assay: Effect on lipid mediator formation in human M1-like phenotype MDM cells by measuring 5,15-diHETE formation at 10 uM pre-incubated for 15 mins followed by SACM stimulation and measured after 90 mins by UPLC-MS/MS analysis relative to control; format: functional; conditions: time 105 min, 1.75 h
Macrophage cell line [10] = assay: Effect on lipid mediator formation in human M1-like phenotype MDM cells by measuring EPA formation at 10 uM pre-incubated for 15 mins followed by SACM stimulation and measured after 90 mins by UPLC-MS/MS analysis relative to control; format: functional; conditions: time 105 min, 1.75 h
Macrophage cell line [11] = assay: Effect on lipid mediator formation in human M2-like phenotype MDM cells by measuring PGF2alpha formation at 10 uM pre-incubated for 15 mins followed by SACM stimulation and measured after 90 mins by UPLC-MS/MS analysis (reference value: 72 +/- 21 pg/ml); format: functional; conditions: time 105 min, 1.75 h
Macrophage cell line [12] = assay: Effect on lipid mediator formation in human M2-like phenotype MDM cells by measuring 14-HDHA formation at 10 uM pre-incubated for 15 mins followed by SACM stimulation and measured after 90 mins by UPLC-MS/MS analysis (reference value: 1517 +/- 298 pg/ml); format: functional; conditions: time 105 min, 1.75 h
Macrophage cell line [13] = assay: Effect on lipid mediator formation in human M2-like phenotype MDM cells by measuring 7-HDHA formation at 10 uM pre-incubated for 15 mins followed by SACM stimulation and measured after 90 mins by UPLC-MS/MS analysis (reference value: 315 +/- 55 pg/ml); format: functional; conditions: time 105 min, 1.75 h
Macrophage cell line [14] = assay: Effect on lipid mediator formation in human M2-like phenotype MDM cells by measuring 12-HEPE formation at 10 uM pre-incubated for 15 mins followed by SACM stimulation and measured after 90 mins by UPLC-MS/MS analysis (reference value: 361 +/- 75 pg/ml); format: functional; conditions: time 105 min, 1.75 h
Macrophage cell line [15] = assay: Effect on lipid mediator formation in human M2-like phenotype MDM cells by measuring 12-HETE formation at 10 uM pre-incubated for 15 mins followed by SACM stimulation and measured after 90 mins by UPLC-MS/MS analysis (reference value: 3325 +/- 789 pg/ml); format: functional; conditions: time 105 min, 1.75 h
Macrophage cell line [16] = assay: Effect on lipid mediator formation in human M2-like phenotype MDM cells by measuring MaR1 formation at 10 uM pre-incubated for 15 mins followed by SACM stimulation and measured after 90 mins by UPLC-MS/MS analysis (reference value: 76 +/- 18 pg/ml); format: functional; conditions: time 105 min, 1.75 h
Macrophage cell line [17] = assay: Effect on lipid mediator formation in human M2-like phenotype MDM cells by measuring RvD1 formation at 10 uM pre-incubated for 15 mins followed by SACM stimulation and measured after 90 mins by UPLC-MS/MS analysis (reference value: 5 +/- 2 pg/ml); format: functional; conditions: time 105 min, 1.75 h
Macrophage cell line [18] = assay: Effect on lipid mediator formation in human M2-like phenotype MDM cells by measuring RvD2 formation at 10 uM pre-incubated for 15 mins followed by SACM stimulation and measured after 90 mins by UPLC-MS/MS analysis (reference value: 6 +/- 1 pg/ml); format: functional; conditions: time 105 min, 1.75 h
Macrophage cell line [19] = assay: Effect on lipid mediator formation in human M2-like phenotype MDM cells by measuring PGF2alpha formation at 10 uM pre-incubated for 15 mins followed by SACM stimulation and measured after 90 mins by UPLC-MS/MS analysis relative to control; format: functional; conditions: time 105 min, 1.75 h
Macrophage cell line [20] = assay: Effect on lipid mediator formation in human M2-like phenotype MDM cells by measuring 7-HDHA formation at 10 uM pre-incubated for 15 mins followed by SACM stimulation and measured after 90 mins by UPLC-MS/MS analysis relative to control; format: functional; conditions: time 105 min, 1.75 h
Macrophage cell line [21] = assay: Effect on lipid mediator formation in human M2-like phenotype MDM cells by measuring PDX1 formation at 10 uM pre-incubated for 15 mins followed by SACM stimulation and measured after 90 mins by UPLC-MS/MS analysis relative to control; format: functional; conditions: time 105 min, 1.75 h
Macrophage cell line [22] = assay: Effect on lipid mediator formation in human M2-like phenotype MDM cells by measuring RvD5 formation at 10 uM pre-incubated for 15 mins followed by SACM stimulation and measured after 90 mins by UPLC-MS/MS analysis relative to control; format: functional; conditions: time 105 min, 1.75 h
Neutrophil = assay: Inhibition of ROS production in PMA-induced human Neutrophil cells at 1 uM incubated for 10 mins by DCFH-DA dye based fluorometric assay; format: functional, cell-based

Question: How did the Activity (Macrophage cell line [1]) turn out when `COc1ccc(C2=C/C(=C/c3ccc(O)cc3O)C(=O)O2)cc1` was run?
Answer: The Activity was 72 pg/mL.

Question: And the Activity (Macrophage cell line [2])?
Answer: Its Activity is 93 pg/mL.

Question: And the Activity (Macrophage cell line [3])?
Answer: The Activity was 27649 pg/mL.

Question: And the Activity (Macrophage cell line [4])?
Answer: The Activity was 11%.

Question: What about the Activity (Macrophage cell line [5]) of the same compound?
Answer: Its Activity is 8%.

Question: And the Activity (Macrophage cell line [6])?
Answer: The Activity was 94%.

Question: What about the Activity (Macrophage cell line [7]) of the same compound?
Answer: Its Activity is 94%.

Question: And the Activity (Macrophage cell line [8])?
Answer: The Activity was 31%.

Question: And the Activity (Macrophage cell line [9])?
Answer: Its Activity is 13%.

Question: And the Activity (Macrophage cell line [10])?
Answer: The Activity was 136%.

Question: And the Activity (Macrophage cell line [11])?
Answer: The Activity was 89 pg/mL.

Question: What about the Activity (Macrophage cell line [12]) of the same compound?
Answer: The Activity was 2718 pg/mL.

Question: What about the Activity (Macrophage cell line [13]) of the same compound?
Answer: Its Activity is 383 pg/mL.

Question: And the Activity (Macrophage cell line [14])?
Answer: The Activity was 520 pg/mL.

Question: And the Activity (Macrophage cell line [15])?
Answer: The Activity was 3796 pg/mL.

Question: What about the Activity (Macrophage cell line [16]) of the same compound?
Answer: The Activity was 144 pg/mL.

Question: And the Activity (Macrophage cell line [17])?
Answer: Its Activity is 6 pg/mL.

Question: What about the Activity (Macrophage cell line [18]) of the same compound?
Answer: The Activity was 6 pg/mL.

Question: And the Activity (Macrophage cell line [19])?
Answer: The Activity was 125%.

Question: What about the Activity (Macrophage cell line [20]) of the same compound?
Answer: Its Activity is 121%.

Question: And the Activity (Macrophage cell line [21])?
Answer: Its Activity is 144%.

Question: And the Activity (Macrophage cell line [22])?
Answer: Its Activity is 167%.

Question: What about the inhibition (Neutrophil) of the same compound?
Answer: The inhibition was “inactive”.

Question: Which Activity (Macrophage cell line [1]) does the source give for `Oc1ccc(CCC2CCC(c3ccc(O)cc3)CO2)cc1` (stereo unspecified) here?
Answer: Its Activity is 40 pg/mL.

Question: And the Activity (Macrophage cell line [2])?
Answer: The Activity was 88 pg/mL.

Question: And the Activity (Macrophage cell line [3])?
Answer: Its Activity is 22962 pg/mL.

Question: What about the Activity (Macrophage cell line [4]) of the same compound?
Answer: Its Activity is 18%.

Question: And the Activity (Macrophage cell line [5])?
Answer: Its Activity is 8%.

Question: What about the Activity (Macrophage cell line [6]) of the same compound?
Answer: Its Activity is 94%.

Question: And the Activity (Macrophage cell line [7])?
Answer: Its Activity is 89%.

Question: What about the Activity (Macrophage cell line [8]) of the same compound?
Answer: Its Activity is 38%.

Question: What about the Activity (Macrophage cell line [9]) of the same compound?
Answer: Its Activity is 30%.

Question: And the Activity (Macrophage cell line [10])?
Answer: The Activity was 113%.

Question: What about the Activity (Macrophage cell line [11]) of the same compound?
Answer: The Activity was 58 pg/mL.

Question: And the Activity (Macrophage cell line [12])?
Answer: Its Activity is 2101 pg/mL.

Question: What about the Activity (Macrophage cell line [13]) of the same compound?
Answer: The Activity was 364 pg/mL.

Question: And the Activity (Macrophage cell line [14])?
Answer: Its Activity is 462 pg/mL.

Question: What about the Activity (Macrophage cell line [15]) of the same compound?
Answer: Its Activity is 4047 pg/mL.

Question: And the Activity (Macrophage cell line [16])?
Answer: The Activity was 81 pg/mL.

Question: What about the Activity (Macrophage cell line [17]) of the same compound?
Answer: The Activity was 4 pg/mL.

Question: And the Activity (Macrophage cell line [18])?
Answer: The Activity was 5 pg/mL.

Question: And the Activity (Macrophage cell line [19])?
Answer: The Activity was 80%.

Question: What about the Activity (Macrophage cell line [20]) of the same compound?
Answer: The Activity was 116%.

Question: What about the Activity (Macrophage cell line [21]) of the same compound?
Answer: The Activity was 116%.

Question: What about the Activity (Macrophage cell line [22]) of the same compound?
Answer: The Activity was 105%.

Question: And the inhibition (Neutrophil)?
Answer: Its inhibition is “inactive”.
